The values that follow are results of earlier work, collected in patent US20090047259A1, “Methods of Using the Calcineurin A Variant CnA-beta 1” (priority 2005, published 2009).

In the data set the test system is calcineurin. To be noted: mdx mice.

Molecules are shown by their SMILES.

In the case of `CC(=O)OCC(=O)[C@@]12N=C(C)O[C@@H]1C[C@H]1[C@@H]3CCC4=CC(=O)C=C[C@]4(C)[C@H]3[C@@H](O)C[C@@]12C` [deflazacort], the “NFAT-dependent genes, including utrophin” value is listed as “induced”; the calcineurin activity entry was “activated calcineurin”; the myocyte viability result is recorded as “restored myocyte viability”.
